Source: patent US20230000812A1, “IBUPROFEN ESTER PRODRUG, PHARMACEUTICAL COMPOSITION, PREPARATION METHOD AND APPLICATION” (NANJING HERON PHARMACEUTICAL SCIENCE AND TECHNOLOGY CO., …, priority 2020, published 2023)
Like-named read-outs stand apart in the source and are kept apart here. Blank lines part the entries; values can stand above or below the compound they belong to.

Legend:
[1] = In vitro human plasma metabolism (enzymolysis kinetics test in human plasma); conditions: for metabolic rate (hydrolysis rate) in human plasma: 0-120 min, FIG. 1 and 2; for degradation rate of the peaks in human plasma: liquid chromatograms, FIG. 3-5
[2] = human, 0.98 mM; for Amount of Active Metabolites Produced (%): 120 min; for Remaining Amount of the Prodrug Compound (%): plasma, 2 h
[3] = Stability of dextrorotatory enantiomers in solvents (MCT, soybean oil, phosphate buffer of Tween 80) at 80° C.; type: physicochemical; conditions: for purity of the isomer: oil phase or water phase; for purity of the isomer / related substances in the oil phase / content of the related substance in the water phase: 10 days
Procedure: Samples were placed at 80° C., and samples were taken on Day 0, 5, and 10 to determine the purity of the compounds and changes of the related substance (ibuprofen) and an isomer (levorotatory).
4.2 Determination of the related substance in accordance with high-performance liquid chromatography (Chinese Pharmacopoeia 2015 Edition General Rules 0512)
(1) Chromatographic conditions: Chromatographic column: Agilent ZORBAX SB-C8, 4.6 mm×250 mm, 5 μm; mobile phase: 0.1% phosphoric acid solution-acetonitrile (50:50); detection wavelength: 220 nm; flowrate: 1.0 mL per minute; column temperature: 40° C.
(§1) (2) Determination method: An appropriate amount of the substance was taken, accurately weighed, added with a diluent [anhydrous ethanol], shaken to be dissolved, quantitatively diluted into a solution of about 0.4 mg/mL, and vortexed for 30s. The solution was filtered with a PTFE filter membrane (0.22 μm, Jinteng) and the filtrate was used as the test solution, 10 μL was accurately measured into a liquid chromatograph and the chromatogram was recorded. In the chromatogram of the test solution, if there were impurity peaks, the results should be obtained by calculation according to a peak area normalization method.
4.3 Determination of the isomer in accordance with high-performance liquid chromatography (Chinese Pharmacopoeia 2015 Edition General Rules 0512)
as §1, with “Determination” for “(2) Determination”, “isomer” for “substance”, “[n-hexane-isopropanol (90:10)],” for “[anhydrous ethanol],”, “1.0” for “0.4”, “isomer” for “impurity”

[4] = Pharmacokinetics in rats after tail vein injection (Test Example 4); conditions: rat, in vivo
Procedure: The whole blood was centrifuged at 8000 rpm for 5 min, and plasma samples were taken and stored at −80° C., separately.
Preparation of test solutions: the test solutions were administered through tail veins of rats at a volume of […].

[5] = Phosphate buffer of Tween 80, 80° C., Day 0
[6] = Phosphate buffer of Tween 80, 80° C., Day 5
[7] = Phosphate buffer of Tween 80, 80° C., Day 10

- Ibuprofen (%) ([3]; MCT, 80° C., Day 0): 0.03%
- Isomer (%) ([3]; MCT, 80° C., Day 0): 3.26%
- Purity of related Main Peak (%) ([3]; MCT, 80° C., Day 0): 99.89%
- Ibuprofen (%) ([3]; MCT, 80° C., Day 5): 0.05%
- Isomer (%) ([3]; MCT, 80° C., Day 5): 3.47%
- Purity of related Main Peak (%) ([3]; MCT, 80° C., Day 5): 99.88%
- Ibuprofen (%) ([3]; MCT, 80° C., Day 10): 0.06%
- Isomer (%) ([3]; MCT, 80° C., Day 10): 3.45%
- Purity of related Main Peak (%) ([3]; MCT, 80° C., Day 10): 99.87%
- Ibuprofen (%) [3, 5]: 2.42%
- Isomer (%) [3, 5]: 3.68%
- Purity of related Main Peak (%) [3, 5]: 97.56%
- Ibuprofen (%) [3, 6]: 10.24%
- Isomer (%) [3, 6]: 3.97%
- Purity of related Main Peak (%) [3, 6]: 89.66%
- Ibuprofen (%) [3, 7]: 16.98%
- Isomer (%) [3, 7]: 3.88%
- Purity of related Main Peak (%) [3, 7]: 82.73%
- Ibuprofen (%) ([3]; Soybean oil, 80° C., Day 0): 0.03%
- Isomer (%) ([3]; Soybean oil, 80° C., Day 0): 3.26%
- Purity of related Main Peak (%) ([3]; Soybean oil, 80° C., Day 0): 99.84%
- Ibuprofen (%) ([3]; Soybean oil, 80° C., Day 5): 0.08%
- Isomer (%) ([3]; Soybean oil, 80° C., Day 5): 3.21%
- Purity of related Main Peak (%) ([3]; Soybean oil, 80° C., Day 5): 99.79%
- Ibuprofen (%) ([3]; Soybean oil, 80° C., Day 10): 0.16%
- Isomer (%) ([3]; Soybean oil, 80° C., Day 10): 3.20%
- Purity of related Main Peak (%) ([3]; Soybean oil, 80° C., Day 10): 99.47%
- purity of the isomer ([3]; 80° C.): remains basically unchanged
- related substances in the oil phase ([3]; 80° C.): remain basically unchanged
- content of the related substance in the water phase ([3]; 80° C.): increases
- Remaining Amount of the Prodrug Compound (%) ([1]; human plasma, 37° C., 120 min): 40.5 ± 1.6%
Structure (SMILES): CCOC(=O)OC(C)OC(=O)[C@@H](C)c1ccc(CC(C)C)cc1 (stereo partly drawn) [Compound N6S]
- metabolic rate (hydrolysis rate) in human plasma ([1]; human plasma): relatively fast metabolic rates close to that of S-FPA

- Isomer (%) ([3]; MCT, 80° C., Day 0): 0.95%
- Purity of related Main Peak (%) ([3]; MCT, 80° C., Day 0): 99.80%
- Ibuprofen (%) ([3]; MCT, 80° C., Day 5): 0.02%
- Isomer (%) ([3]; MCT, 80° C., Day 5): 0.95%
- Purity of related Main Peak (%) ([3]; MCT, 80° C., Day 5): 99.78%
- Ibuprofen (%) ([3]; MCT, 80° C., Day 10): 0.04%
- Isomer (%) ([3]; MCT, 80° C., Day 10): 0.94%
- Purity of related Main Peak (%) ([3]; MCT, 80° C., Day 10): 99.66%
- Ibuprofen (%) [3, 5]: 0.63%
- Isomer (%) [3, 5]: 0.86%
- Purity of related Main Peak (%) [3, 5]: 99.03%
- Ibuprofen (%) [3, 6]: 5.27%
- Isomer (%) [3, 6]: 1.19%
- Purity of related Main Peak (%) [3, 6]: 92.78%
- Ibuprofen (%) [3, 7]: 8.76%
- Isomer (%) [3, 7]: 1.78%
- Purity of related Main Peak (%) [3, 7]: 87.97%
- Isomer (%) ([3]; Soybean oil, 80° C., Day 0): 0.91%
- Purity of related Main Peak (%) ([3]; Soybean oil, 80° C., Day 0): 99.85%
- Ibuprofen (%) ([3]; Soybean oil, 80° C., Day 5): 0.09%
- Isomer (%) ([3]; Soybean oil, 80° C., Day 5): 0.90%
- Purity of related Main Peak (%) ([3]; Soybean oil, 80° C., Day 5): 99.57%
- Ibuprofen (%) ([3]; Soybean oil, 80° C., Day 10): 0.13%
- Isomer (%) ([3]; Soybean oil, 80° C., Day 10): 0.97%
- Purity of related Main Peak (%) ([3]; Soybean oil, 80° C., Day 10): 99.38%
- purity of the isomer ([3]; 80° C.): remains basically unchanged
- related substances in the oil phase ([3]; 80° C.): remain basically unchanged
- content of the related substance in the water phase ([3]; 80° C.): increases
- Remaining Amount of the Prodrug Compound (%) ([1]; human plasma, 37° C., 120 min): 45.0 ± 2.1%
Structure (SMILES): CCOC(=O)OC(CC)OC(=O)[C@@H](C)c1ccc(CC(C)C)cc1 (stereo partly drawn) [Compound N9S]
- metabolic rate (hydrolysis rate) in human plasma ([1]; human plasma): relatively fast metabolic rates close to that of S-FPA

- metabolic rate (hydrolysis rate) in human plasma ([1]; human plasma): relatively slow metabolic rates
Structure (SMILES): CCC(OC(=O)OC(C)C)OC(=O)[C@@H](C)c1ccc(CC(C)C)cc1 (stereo partly drawn) [Compound N10S]

- degradation rate of the peaks in human plasma [1]: different degradation rates
Structure (SMILES): CCOC(=O)O[C@H](C)OC(=O)[C@@H](C)c1ccc(CC(C)C)cc1 [N6(S)-1]

- degradation rate of the peaks in human plasma [1]: different degradation rates
Structure (SMILES): CCOC(=O)O[C@@H](C)OC(=O)[C@@H](C)c1ccc(CC(C)C)cc1 [N6(S)-2]

- degradation rate of the peaks in human plasma [1]: different degradation rates
Structure (SMILES): CCOC(=O)O[C@@H](CC)OC(=O)[C@@H](C)c1ccc(CC(C)C)cc1 [N9(S)-2]

The next lines start with the compound.

Structure (SMILES): CC(C)Cc1ccc([C@H](C)C(=O)OC(C)OC(=O)OC(C)C)cc1 (stereo partly drawn) [Compound N2S]
- metabolic rate (hydrolysis rate) in human plasma ([1]; human plasma): relatively slow metabolic rates
- Remaining Amount of the Prodrug Compound (%) ([1]; human plasma, 37° C., 120 min): 78.6 ± 2.6%
- degradation rate of the peaks in human plasma [1]: relatively slow degradation rate

Structure (SMILES): CC(C)Cc1ccc(C(C)C(=O)OC(C)OC(=O)OC(C)C)cc1 (stereo not drawn) [Compound N2]
- Amount of Active Metabolites Produced (%) [2]: 10.7 ± 0.4%
- Remaining Amount of the Prodrug Compound (%) [2]: 87.4 ± 5.3%

Structure (SMILES): CCOC(=O)OC(C)OC(=O)C(C)c1ccc(CC(C)C)cc1 (stereo not drawn) [Compound N6]
- Remaining Amount of the Prodrug Compound (%) [2]: 58.96 ± 3.1%

Structure (SMILES): CCOC(=O)OC(CC)OC(=O)C(C)c1ccc(CC(C)C)cc1 (stereo not drawn) [Compound N9]
- AUC0-t compared with dexibuprofen salt solution directly injected [4]: no significant difference
- Amount of Active Metabolites Produced (%) [2]: 20.3 ± 0.8%
- Remaining Amount of the Prodrug Compound (%) [2]: 62.5 ± 1.3%

Structure (SMILES): CC(=O)OC(C)OC(=O)C(C)c1ccc(-c2ccccc2)c(F)c1 (stereo not drawn) [FPA, flurbiprofen axetil, reference compound]
- Remaining Amount of the Prodrug Compound (%) [1]: 50.9 ± 2.5%

Structure (SMILES): CC(=O)OC(C)OC(=O)[C@@H](C)c1ccc(-c2ccccc2)c(F)c1 (stereo partly drawn) [S-FPA, reference compound]
- Amount of Active Metabolites Produced (%) ([1]; human plasma, 37° C., 120 min): 44.3 ± 2.3%
- Remaining Amount of the Prodrug Compound (%) ([1]; human plasma, 37° C., 120 min): 37.4 ± 1.9%
